Experimental data as given in patent publication US20240325381A1 (GUANGZHOU INSTITUTES OF BIOMEDICINE AND HEALTH, CHINESE …, priority 2021, published 2024).

What was measured:
Assay type in all cases: cell-based
[1] = system: Mito-GFP-labeled neural precursor cells; experiment: Clearance of mitochondria by flunarizine in mito-GFP-labeled neural precursor cells (confocal microscopy); settings: for mitochondrial morphology in neural precursor cells: 3 days
Experimental: Mito-GFP-labeled neural precursor cells were plated on a 6-well plate, and the surface coverage of the neural precursor cells on the 6-well plate was 80%. […] Then, the cells were detected with a confocal microscopy and the clearance efficiency of the mitochondrial was observed.
The mito-GFP-labeled neural precursor cells were plated on a 6-well plate, and the surface coverage of the neural precursor cells on the 6-well plate was 80%. […] Then, the results were detected with a confocal microscope and the efficiency of the mitochondrial clearance was observed.

[2] = system: neural precursor cells labeled with LC3-GFP and mito-DsRed; experiment: Co-localization of mitochondria with LC3-GFP labeled autophagosomes (confocal microscope); settings: 15 μM flunarizine, 12 hours
Experimental: The neural precursor cells labeled with LC3-GFP and mito-DsRed were plated on the glass slides, and the surface coverage of the neural precursor cells on the glass slides was 80%. […] Then, the results were detected with a confocal microscope.

[3] = system: Mito-GFP-labeled neural precursor cells; experiment: Mitochondrial clearance after knockdown of classic mitophagy core genes in neural precursor cells; settings: 15 μM flunarizine, 3 days; shTRC, shATG5-a/b, shPINK1-a/b, shFUNDC1-a/b
Experimental: The corresponding classic mitophagy core genes (including shTRC, shATG5-a, shATG5-b, shPINK1-a, shPINK1-b, shFUNDC1-a, and shFUNDC1-b) in mito-GFP-labeled neural precursor cells were knocked down. Then, the cells were plated on a glass slide, the surface coverage of neural precursor cells on the glass slide was 80%. […] Thereafter, the cells were detected with a confocal microscope. The specific results are illustrated in FIG. 3B and FIG. 3C.

[4] = system: Mito-GFP-labeled mouse embryonic fibroblasts (MEF cells); experiment: Mitochondrial clearance in MEF cells with mitophagy core genes knocked off; settings: 15 μM flunarizine, 3 days; WT, ATG5, PARK2, FUNDC1
Experimental: Mito-GFP-labeled mouse embryonic fibroblasts (MEF cells) were plated on a glass slide. The corresponding classic mitophagy core genes (including WT, ATG5, PARK2, and FUNDC1) in the MEF cells were knocked off. The surface coverage of the cells on the glass slide was 80%. […] Then, the cells were detected with a confocal microscope.

[5] = system: neural precursor cells labeled with LAMP1-GFP and mito-DsRed; experiment: Mitochondria entering lysosomes (LAMP1-GFP / mito-DsRed overlap); settings: 15 μM flunarizine, 12 hours
Experimental: The neural precursor cells labeled with LAMP1-GFP and mito-DsRed were plated on a glass slide, and the surface coverage of the neural precursor cells on the glass slide was 80%. […] Then, the results were detected with a confocal microscope.

[6] = system: Mito-DsRed-labeled neural precursor cells; experiment: Mitochondrial efflux (mitochondria, lysosome and cell membrane overlap); settings: 15 μM flunarizine, 24 hours; Lysotraker DeepRed, FM1-43
Experimental: Mito-DsRed-labeled neural precursor cells were plated on a glass slide, and the surface coverage of the neural precursor cells on the glass slide was 80%. […] The final concentration was 15 μM. The lysosomes were labeled with Lysotraker DeepRed, the cell membranes were labeled with FM1-43, and then the results were detected with a confocal microscope.

## Fc1ccc(C(c2ccc(F)cc2)N2CCN(C/C=C/c3ccccc3)CC2)cc1 [flunarizine]
[1]; 15 μM flunarizine, 3 days of treatment, 80% surface coverage
  removal of intracellular mitochondria: substantially completely removed
[1]; after 3 days of treatment, tested 5, 10, 15, 20, 25 μM
  concentration that can effectively remove the mitochondria in the cells: above 10 μM
[1]; contact time more than 3 days
  removal of intracellular mitochondria: completely removed
[1]; final concentration 15 μM
  mitochondrial morphology in neural precursor cells: basically not observed
[1]; final concentration 20 μM
  mitochondrial morphology in neural precursor cells: basically not observed
[1]; final concentration 25 μM
  mitochondrial morphology in neural precursor cells: basically not observed
[2]
  co-localization of mitochondria with LC3-GFP labeled autophagosomes: not co-localized with LC3-GFP labeled autophagosomes
[3]
  mitochondrial clearance after knockdown of mitophagy core genes: knockdown of related genes could not inhibit mitochondrial clearance
[4]
  mitochondrial clearance in MEF cells with mitophagy genes knocked off: knockdown of mitophagy-related genes cannot inhibit mitochondrial clearance
[5]
  overlap of LAMP1 and mito (mitochondria entering lysosomes): wrapped by lysosomes
[6]
  mitochondrial efflux vesicles on the cell surface: efflux vesicles wrapped around mitochondria were formed
